Experimental data taken from patent US11684672B2, “Combinations of copanlisib with anti-PD-1 antibody” (BAYER PHARMA AKTIENGESELLSCHAFT, priority 2017, dated 2023).
Where a name gives a salt, the structure may show the parent alone.

Key:
[1] = system: A20 diffuse large B cell lymphoma; experiment: Anti-tumor efficacy in A20 DLBCL syngeneic mouse model; assay type: in vivo; conditions: monotherapy; Cpd A 14 mg/kg i.v., Cpd B 200 μg/mouse i.v.; female BALB/c mice; vs vehicle control group
Protocol: (§1) A20 diffuse large B cell lymphoma and CT26 colorectal cancer cells were maintained in vitro in cell cultural medium supplemented with serum (according to the instructions for each corresponding cell lines) at 37° C. in an atmosphere of 5% CO2 in air. The tumor cells were routinely subcultured twice weekly. The cells in an exponential growth phase were harvested and counted for tumor inoculation. To investigate anti-tumor efficacy and mechanisms of action in vivo, each mouse was inoculated subcutaneously at the right lower flank region with tumor cells (1×10^5−2×10^6 depending on the cell lines) in 0.1 ml of PBS with or without metrigel for tumor development. Before commencement of treatment, all animals were weighed and the tumor volumes were measured using a caliper. […]
(§2) Tumor volumes were measured 2-3 times weekly in two dimensions using a caliper, and the volume was expressed in mm^3 using the formula: V=0.5 a×b2 where a and b are the long and short diameters of the tumor, respectively. Tumor weight was measured at study termination. […]
The anti-tumor activity of Compound A and Compound B was assessed firstly in an immune-checkpoint blocker resistant DLBCL syngeneic A20 xenograft mouse model as single agent and in combination. […] Body weights and tumor size were measured three times per week. […] The tolerability was assessed by body weight change. […]

[2] = system: CT26 (KRAS^mut, non-MSI^high) colorectal cancer; experiment: Anti-tumor efficacy in CT26 colorectal cancer syngeneic mouse model; assay type: in vivo; conditions: monotherapy
Protocol: as §1, §2
Therefore, the anti-tumor activity of Compound A and Compound B was assessed in the mouse syngeneic CT26 (KRAS^mut, non-MSI^high) colorectal cancer xenograft model as single agent and in combination. […]

[3] = system: regulatory T cells (Treg); experiment: Analysis of regulatory T cells (Treg) and CD8+ T cells in tumor, spleen and thymus of the A20 model; assay type: in vivo, mouse
Protocol: Sampling procedures: organ and tumor tissues were quickly removed and weighted 3 h post the final dose for FACS, IHC (FFPE), and RNA/pretein expression analysis.
The anti-tumor activity of Compound A and Compound B was assessed firstly in an immune-checkpoint blocker resistant DLBCL syngeneic A20 xenograft mouse model as single agent and in combination. A20 cells were inoculated subcutaneously at the right flank of female BALB/c mice for tumor development. The treatment was started when the average tumor size reached about 116 mm^3. Mice were allocated randomly into experimental groups according to their tumor sizes and being treated from day 12 after tumor cell inoculation. Cpd A was dosed at 14 mg/kg and Cpd B at 200 μg/mouse intravenously with the schedule indicated in FIG. 1 A. Treatment groups were: control antibody (ctrl Ab), vehicle control (vehicle), compound A monotherapy (Cpd. A), Cpd. B monotherapy, 3 combination groups with different dosing schedules. Body weights and tumor size were measured three times per week. Tumor growth curve (FIG. 1B), tumor weight at the end of treatment (FIG. 1C) and tumor response (FIG. 1D) were used as anti-tumor activity endpoints. The tolerability was assessed by body weight change. […]

## COc1c(OCCCN2CCOCC2)ccc2c1N=C(NC(=O)c1cnc(N)nc1)N1CCN=C21 [Cpd A, 2-amino-N-[7-methoxy-8-(3-morpholin-4-ylpropoxy)-2,3-dihydroimidazo[1,2-c]quinazolin-5-yl]pyrimidine-5-carboxamide dihydrochloride]
[1]
  relative tumor growth inhibition (TGI %): 78%
[2]
  TGI: 71%
[3]; A20 model, thymus and spleen
  effect on Treg in thymus and spleen: minimal or no effects
[3]; A20 tumors, Treg among CD4+ T cells
  effect on Treg population in tumors: specifically reduce the Treg population in tumors
